According to patent publication US20230145868A1, “UREA INHIBITORS OF MICRO-RNA” (Board of Regents, The University of Texas System, priority 2020, published 2023):

How the values were obtained:
Assay type in all cases: cell-based, human
AGS cell line [1] = assay: Cell proliferation assay (WST-8 or MTS), AGS
Protocol: IC50 dose-response curves were determined using the cell proliferation assay system. Briefly, 5,000 or 10,000 cells of each cell line were plated in 96-well microculture plates in replicates of either 4 or 6. When cells became adherent, either 5 or 10 sequentially decreasing doses of the small molecule miRNA inhibitor were diluted into new media and added to individual wells. After either 24 or 48 hours, of a tetrazolium salt such as MTS, MTT, or WST-8 was added to each well at the same time of day as treatment and incubated for either 2 or 3 h at 37° C. The OD, measuring at the appropriate wavelength for the dye, was read at on a microplate spectrophotometer.
Cell proliferation is determined using a colorimetric assay. A tetrazolium salt such as MTS, MTT, or WST-8 is reduced by dehydrogenase activities in cells to give a formazan dye, which is soluble in the tissue culture media. The amount of the formazan dye (generated by the activities of dehydrogenases in cells, and directly proportional to the number of living cells) is measured after 3 h of incubation. The OD is read at 450 nm on a microplate spectrophotometer and growth values (%) are calculated as (OD treated cells/OD untreated cells)×100. The experiments are performed in triplicate. Cell viability is also tested by bromodeoxyuridine (BrdU) test according to the instructions. 2000 MM231, MCF7 and HepG2 cells are seeded to 96-well plate. After 24 h, 10 μM DMSO or linifanib is added to each well. The OD is read at 450/550 nm on a microplate spectrophotometer, after one to seven days of the treatment. The experiments are performed in triplicate.

mature miR-10b = assay: RT-qPCR of mature miR-10b; settings: normalized to U6, vs DMSO
Protocol: Potential small molecule miRNA inhibitors were tested in MCF7 cells, a metastatic cell line (MM231) and an HCC cell line (HepG2) through RT-qPCR. Cells were seeded in 12-well plates 24 h before treatments at a confluence of 50-60%. They were treated at a concentration of 10 μM linifanib (positive control) or DMSO (negative control), and RNA was collected after 24 and 48 h. MicroRNA expression was tested using TaqMan microRNA assay (Applied Biosystems). The cDNA was synthesized using TaqMan Reverse Transcription Reagents kit (Applied Biosystems) and employed for quantitative RT-qPCR analysis together with TaqMan probes and SsoFastSupermix (Bio-rad). Primers and probes were purchased for hsa-miR-10b, hsa-pri-miR-10b, U6, and U48 snRNA that was used as an internal control.
To detect the levels of the precursor sequences, cDNA was synthesized using the SuperScript III cDNA kit (Invitrogen). Diluted cDNA was used for RT-qPCR analysis using iQ SYBR Green Supermix (Bio-Rad) with primers designed by in-house. Experiments were performed in triplicate; treated samples were compared to the DMSO-treated controls and normalized to the internal control. Relative expression levels were calculated using the 2-ΔCt method.

AGS cell line [2] = assay: Migration assay, AGS; settings: vs DMSO
Dicer = assay: Western blot, Dicer expression; settings: AsPC1, AGS, U251, LN229
Protocol: (§1) Proteins are collected from cultured cells and lysed with 10× Lysis Buffer (Cell Signaling) freshly supplemented with a complete protease inhibitor cocktail and phosphatase inhibitors (Sigma). Bradford assay is used to measure protein concentration. Proteins are separated by polyacrylamide gel (Bio-rad) electrophoresis and were transferred to a 0.2 μm nitrocellulose membrane (Bio-rad). Quantification of protein expression was conducted using the image analysis software ImageJ.

[3] = test system: U251 brain cancer cell line; assay: Cell morphology; settings: over the course of 48 h
PDGF = assay: Western blot, PDGF expression; settings: LN229 and U251 brain cancer cell lines
Protocol: as §1

miR-10b = assay: qRT-PCR of miR-10b in cerebral organoids co-cultured with brain cancer cells; settings: 10 μM, 48 h
Text: For co-culturing with cerebral organoids, the brain cancer cell lines U251 and LN229 were transduced with an RFP lentiviral vector expressing mCherry and luciferase, and sorted twice via an Aria Influx Cell Sorter.
Human induced pluripotent stem cell (iPSC) derived cerebral organoids were obtained, courtesy of Dr. Sanjay Singh and Dr. Frederick Lang in the Department of Neurosurgery at MD Anderson Cancer Center. Organoids were maintained in a specialized neural based media on a shaker inside a 37° C. incubator. After maturation, organoids were moved to 24-well ultra-low attachment plates, and individually co-cultured with 5×10^5−1×10^6 cells from brain cancer cell lines for approximately 48-72 h, until RFP signal was clear on the surface of the organoid, indicating cell attachment. Organoids were then moved to 6 well plates and grouped into triplicates within the well. The treatment regimen of control, and 4 was started, at an analogous schedule to in vitro experiments. For fixation and embedding for in situ hybridization, the organoids were processed using 4% PFA and placed in OCT in −80° C. for sectioning.

[4] = test system: proteins on the PI3K/AKT pathway; assay: Reverse phase protein array (RPPA), PI3K/AKT pathway; settings: U251; 10 μM (FIG. 23); p<0.01
Protocol: Proteomics analysis was conducted at the Reverse Phase Protein Array Core facility at MD Anderson Cancer Center. Briefly, controls and treated samples were analyzed in triplicate for 486 unique antibodies. The outputs were then normalized for protein loading and transformed to the linear value, and the normalized data was logy transformed (log2(x+1)) and sorted by FDR-adjusted p-values with a significance level of p<0.05. Differentially expressed proteins between groups were identified using the moderated t-test from LIMMA package. […] Analyses and graphical representations were carried out in R. When preparing the data for analysis, the loge fold change was calculated and adjusted p-value was used for analysis. Gene symbols were converted using the DAVID bioinformatics resource and the clusterProfiler data visualization and analysis package was used for pathway enrichment analysis. For pathway analysis, the Hallmark gene set and Gene Ontology was used for gene set and pathway enrichment.

U251 cell line = assay: Annexin V/PI apoptosis assay by flow cytometry, U251; settings: 48 h
Protocol: In 6-well plates, 1×10^5 cells/mL were added into each well. After 24 h, sequential concentrations of DMSO and 4 based were administered and the plates were incubated for 48 h. The supernatant and adherent cells were collected and centrifugated. Each dose was done in triplicate, with each sample composing two wells. For apoptosis analysis, the supernatant was discarded after centrifugation and the pellet washed with PBS twice. Then, BD Annexin V-FITC/PI used to stain the cells for analysis via flow cytometry on the Gallios machine. For cell cycle analysis, after washing with PBS, cells were fixed with ethanol and incubated. They, were treated with RNase enzyme and analyzed.

Compound	proliferation (AGS cell line [1]; 10 μM, 5 μM and 2 μM, vs DMSO)	level of mature miR-10b (mature miR-10b; AGS gastric cell line)	level of mature miR-10b (mature miR-10b; AsPC1 pancreatic cell line)	migration (AGS cell line [2])	Dicer expression (Western blot) (Dicer)	cell viability (proliferation ability) (AGS cell line [1]; 10 μM, vs DMSO)	proliferation (MTS), every 24 h over 96 h (AGS cell line [1]; 5 and 10 μM, beginning at 48 h of treatment)	morphology of the cells [3]	PDGF expression (Western blot) (PDGF)	miR-10b levels (qRT-PCR) (miR-10b; cerebral organoids co-cultured with LN229)	miR-10b levels (qRT-PCR) (miR-10b; cerebral organoids co-cultured with U251)	expression of proteins on the PI3K/AKT pathway (RPPA) [4]	increase in total apoptotic cells compared to control (U251 cell line; 5 μM)	total apoptotic cells at 10 μM compared with 5 μM (U251 cell line; 10 μM)
Cc1ccc(F)c(NC(=O)Nc2ccc(-c3cncnc3)cc2)c1 [Example 2, 1-(2-fluoro-5-methylphenyl)-3-(4-(pyrimidin-5-yl)phenyl)urea]	reduced proliferation	reduce the level of mature miR-10b	reduces the level of mature miR-10b	decreased migration	–	–	–	–	–	–	–	–	–	–
Cc1ccc(F)c(NC(=O)Nc2ccc(-c3cccc4cn[nH]c34)cc2)c1 [Example 4, 1-(4-(1H-indazol-7-yl)phenyl)-3-(2-fluoro-5-methylphenyl)urea]	–	reduces the level of mature miR-10b	reduces the level of mature miR-10b	decreased migration	little to no variation	statistically significant effect	significant difference in proliferation	significant change in the morphology	low to very slight variations	Significant downregulation of miR-10b	Significant downregulation of miR-10b	ten of the twelve proteins showing significant downregulation	approximately 4.5 fold	approximately the same
